Experimental data published in the NIST ThermoML archive (doi:10.1021/je900442b).
± gives the expanded uncertainty stated by the source.

Experiments:
[1] = 101 kPa, Liquid
[2] = xn = mol fraction of the nth substance listed; details: 101 kPa, Liquid

CC(=O)OC(C)(C)C [1,1-dimethylethyl ethanoate]
[1]
Details	mass density [kg/m3]	speed of sound [m/s]
298.15 K	859.75 ± 0.95	1091 ± 4
303.15 K	853.94 ± 0.99	1078 ± 4
308.15 K	848.34 ± 1	1049 ± 4
313.15 K	842.67 ± 1.1	1040 ± 4

CC(=O)OC(C)(C)C [1,1-dimethylethyl ethanoate] + CO
[2]
Details	mass density, 298.15 K [kg/m3]	mass density, 303.15 K [kg/m3]	mass density, 308.15 K [kg/m3]	mass density, 313.15 K [kg/m3]	speed of sound, 298.15 K [m/s]	speed of sound, 303.15 K [m/s]	speed of sound, 308.15 K [m/s]	speed of sound, 313.15 K [m/s]
x1 = 0.1004	806.42 ± 0.87	801.36 ± 0.91	796.06 ± 0.94	791.34 ± 0.98	1107 ± 4	1090 ± 4	1069 ± 4	1055 ± 4
x1 = 0.1997	819.95 ± 0.89	814.66 ± 0.93	809.27 ± 0.96	804.29 ± 1	1105 ± 4	1089 ± 4	1065 ± 4	1052 ± 4
x1 = 0.2996	829.79 ± 0.9	824.37 ± 0.94	818.91 ± 0.98	813.75 ± 1	1105 ± 4	1089 ± 4	1063 ± 4	1051 ± 4
x1 = 0.3916	836.73 ± 0.91	831.21 ± 0.95	825.7 ± 0.99	820.41 ± 1	1104 ± 4	1088 ± 4	1061 ± 4	1049 ± 4
x1 = 0.5003	843.12 ± 0.92	837.52 ± 0.96	831.98 ± 1	826.57 ± 1	1103 ± 4	1087 ± 4	1059 ± 4	1048 ± 4
x1 = 0.5988	847.72 ± 0.93	842.05 ± 0.97	836.48 ± 1	831 ± 1	1102 ± 4	1086 ± 4	1057 ± 4	1046 ± 4
x1 = 0.6994	851.57 ± 0.94	845.85 ± 0.97	840.26 ± 1	834.72 ± 1.1	1100 ± 4	1085 ± 4	1055 ± 4	1045 ± 4
x1 = 0.7985	854.72 ± 0.94	848.96 ± 0.98	843.36 ± 1	837.77 ± 1.1	1097 ± 4	1083 ± 4	1053 ± 4	1043 ± 4
x1 = 0.8992	857.43 ± 0.95	851.65 ± 0.98	846.04 ± 1	840.4 ± 1.1	1094 ± 4	1080 ± 4	1051 ± 4	1041 ± 4
x1 = 1	859.75 ± 0.95	853.94 ± 0.99	848.34 ± 1	842.67 ± 1.1	1091 ± 4	1078 ± 4	1049 ± 4	1040 ± 4

CCCCOC(C)=O [butyl ethanoate]
[1]
Details	mass density [kg/m3]	speed of sound [m/s]
298.15 K	876.18 ± 0.86	1190 ± 4
303.15 K	871.27 ± 0.9	1173 ± 4
308.15 K	865.41 ± 0.94	1150 ± 4
313.15 K	860.46 ± 0.98	1131 ± 4

CCCCOC(C)=O [butyl ethanoate] + CO
[2]
Details	mass density, 298.15 K [kg/m3]	mass density, 303.15 K [kg/m3]	mass density, 308.15 K [kg/m3]	mass density, 313.15 K [kg/m3]	speed of sound, 298.15 K [m/s]	speed of sound, 303.15 K [m/s]	speed of sound, 308.15 K [m/s]	speed of sound, 313.15 K [m/s]
x1 = 0.1004	810.58 ± 0.86	805.75 ± 0.9	800.39 ± 0.94	795.84 ± 0.98	1130 ± 4	1112 ± 4	1092 ± 4	1076 ± 4
x1 = 0.2329	831.49 ± 0.88	826.61 ± 0.92	821.09 ± 0.95	816.38 ± 0.99	1151 ± 4	1132 ± 4	1111 ± 4	1093 ± 4
x1 = 0.2996	839.18 ± 0.88	834.29 ± 0.92	828.66 ± 0.96	823.89 ± 1	1160 ± 4	1140 ± 4	1118 ± 4	1100 ± 4
x1 = 0.4008	848.46 ± 0.88	843.52 ± 0.92	837.84 ± 0.96	833.02 ± 1	1171 ± 4	1151 ± 4	1128 ± 4	1109 ± 4
x1 = 0.498	855.46 ± 0.88	850.52 ± 0.92	844.77 ± 0.96	839.91 ± 1	1179 ± 4	1159 ± 4	1136 ± 4	1116 ± 4
x1 = 0.5988	861.3 ± 0.88	856.34 ± 0.92	850.55 ± 0.96	845.66 ± 0.99	1185 ± 4	1165 ± 4	1141 ± 4	1122 ± 4
x1 = 0.6994	866.05 ± 0.87	861.1 ± 0.91	855.28 ± 0.95	850.36 ± 0.99	1189 ± 4	1170 ± 4	1145 ± 4	1126 ± 4
x1 = 0.7912	869.71 ± 0.87	864.74 ± 0.91	858.91 ± 0.95	853.98 ± 0.99	1191 ± 4	1172 ± 4	1148 ± 4	1128 ± 4
x1 = 0.8992	873.3 ± 0.87	868.38 ± 0.91	862.52 ± 0.94	857.58 ± 0.98	1191 ± 4	1173 ± 4	1149 ± 4	1130 ± 4
x1 = 1	876.18 ± 0.86	871.27 ± 0.9	865.41 ± 0.94	860.46 ± 0.98	1190 ± 4	1173 ± 4	1150 ± 4	1131 ± 4

CO [methanol]
[1]
Details	mass density [kg/m3]	speed of sound [m/s]
298.15 K	786.38 ± 0.84	1109 ± 4
303.15 K	781.65 ± 0.87	1092 ± 4
308.15 K	776.52 ± 0.91	1074 ± 4
313.15 K	772.15 ± 0.95	1060 ± 4

CO [methanol] + CC(=O)OC(C)(C)C
[2], x2 = 0
Details	mass density [kg/m3]	speed of sound [m/s]
298.15 K	786.38 ± 0.84	1109 ± 4
303.15 K	781.65 ± 0.87	1092 ± 4
308.15 K	776.52 ± 0.91	1074 ± 4
313.15 K	772.15 ± 0.95	1060 ± 4

CO [methanol] + CCCCOC(C)=O
[2], x2 = 0
Details	mass density [kg/m3]	speed of sound [m/s]
298.15 K	786.38 ± 0.84	1109 ± 4
303.15 K	781.65 ± 0.87	1092 ± 4
308.15 K	776.52 ± 0.91	1074 ± 4
313.15 K	772.15 ± 0.95	1060 ± 4
